Measured values taken from patent publication US8980933B2, “Combretastatin analogs for use in the treatment of cancer” (Universitat Bayreuth, priority 2010, dated 2015).

Experiments:
518A2 cells = assay: Mitochondrial membrane assay (JC-1), 518A2; format: cell-based, human; details: 5 μM, red/green fluorescence ratio relative to untreated controls (100%), mean ± SD
Procedure: Values represent means of four independent experiments±standard deviation.
Changes in mitochondrial membrane potential were determined by the Mitochondrial Membrane Detection Kit (Stratagene, La Jolla, Calif., USA) according to the manufacturer's procedure. 72 h following treatment with 5 μM of the test compounds, cell samples were centrifuged at 400 g for 5 min. The pellets were resuspended in 500 μL diluted JC-1 solution, incubated at 37° C. for 15 min (HL-60) and then centrifuged again for 5 min at 400 g. After washing, the pellets were resuspended in 100 μL PBS and transferred into the wells of a black 96-well plate. The red (λex=585 nm, λem=590 nm) and green (λex=510 nm, λem=527 nm) fluorescence intensities were measured and their ratio was calculated.

[1] = tested on: HT-29 colon carcinoma cells; assay: MTT cell growth inhibition, HT-29; format: cell-based, human; details: for IC50 concentration: combretastatin A-4 resistant HT-29 cells; for cytotoxicity (comparison): multi-drug resistant HT-29 colon cancer cells
Procedure: The effects of the compounds 5b, 6b, 8a, and 8e according to the present invention and of the reference compound 25f (Wang et al., J. Med. Chem. 2002, 45, 1697-1711) on cells of the following human tumor cell lines were evaluated: 518A2 melanoma, HL-60 leukemia, HT-29 colon carcinoma, KB-V1/Vbl cervical carcinoma, and MCF-7/Topo breast carcinoma.
The HL-60 cells were obtained from the German Collection of Biological Material (DSMZ), Braunschweig, Germany; the human 518A2 melanoma cells as well as the testicular germ cell tumor cell lines H12.1 and 1411HP were cultured in the department of oncology and hematology, Medical Faculty of the Martin-Luther University, Halle, Germany; the KBV1/Vbl and the MCF-7/Topo cells were obtained from the Institute of Pharmacy of the University Regensburg, Germany; and the colon HT-29 cells from the University Hospital Erlangen, Germany. The HL-60 and the HT-29 cells were grown in RPMI-1640 medium supplemented with 10% fetal calf serum (FCS), 100 IU/mL penicillin G, 100 μg/mL streptomycin sulfate, 0.25 μg/mL amphotericin B and 250 μg/mL gentamycine (all from Gibco, Egenstein, Germany). The 518A2 and the KB-V1/Vbl cells were cultured in Dulbecco's Modified Eagle Medium (D-MEM, Gibco) containing 10% FCS, 100 IU/mL penicillin G, 100 μg/mL streptomycin sulfate, 0.25 μg/mL amphotericin B and 250 μg/mL gentamycine. The MCF-7/Topo cells were grown in E-MEM medium (Sigma) supplemented with 2.2 g/L NaHCO3, 110 mg/L sodium pyruvate and 5% FCS. The cells were maintained in a moisture-saturated atmosphere (5% CO2) at 37° C. in 75-mL culture flasks (Nunc, Wiesbaden, Germany). They were serially passaged following trypsinisation by 0.05% trypsin/0.02% EDTA (PAA laboratories, Clbe, Germany). Mycoplasma contamination was routinely monitored, and only mycoplasma-free cultures were used.
MTT [3-(4,5-dimethylthiazol-2-yl)-2,5-diphenyltetrazolium bromide](ABCR) was used to identify viable cells which reduce it to a violet formazan (Mosmann, J. Immunol. Methods 1983, 65, 55-63). HL-60 leukemia cells (5×10^5/mL), and cells (5×10^4/mL) of 518A2 melanoma, HT-29 colon, KB-V1/Vbl cervix and MCF-7/Topo breast carcinoma were seeded out in 96-well tissue culture plates and cultured for 24 h. Incubation (5% CO2, 95% humidity, 37° C.) of the cells following treatment with the test compounds was continued for 24, 48 or 72 h. Blank and solvent controls were treated identically. MTT in phosphate buffered saline (5 mg/mL) was added to a final concentration of 0.05% (HL-60, 518A2) or 0.1% (HT-29, KB-V1/Vbl, MCF-7/Topo). After 2 h the formazan precipitate was dissolved in 10% sodium dodecylsulfate in DMSO containing 0.6% acetic acid in the case of the HL-60 cells. For the adherent 518A2, KB-V1/Vbl, MCF-7/Topo and HT-29 cells the microplates were swiftly turned to discard the medium before adding the solvent mixture. The microplates were gently shaken in the dark for 30 min and absorbance at 570 nm and 630 nm (background) was measured with an ELISA plate reader. All experiments were carried out in quadruplicate; the percentage of viable cells was calculated as the mean±SD with controls set to 100%.

HUVEC cells = assay: Tube formation assay on matrigel; format: cell-based; details: 7.72 ng/mL
Procedure: 35 μL of media:matrigel (1:1) were added into wells of a 96-well plate and incubated at 37° C. for 30 minutes. A trypsinized HUVEC cell suspension was set to 800.000 cells/mL. In another 96-well plate 25 μL of the compound stock were serially diluted with 25 μL of media. 25 μL of compound dilutions and 25 μL of cell suspension were added to the matrigel coated 96-well plate and the cells were incubated over night. As a negative control, methanol was used as in place of the compound dilutions.

[2] = tested on: vascular system of a fertilized chicken embryo; assay: CAM assay; format: in vivo; details: 10 nmol applied on the embryonal vessels; up to three days
Procedure: Compounds of the present invention were tested for anti-angiogenic and vasculature disrupting properties using the CAM assay. In this test the vascular system of a fertilized chicken embryo is used as a model (Wilting et al., Anat. Embryol. 1991, 183, 259-271).
Fertilized chicken eggs received from a nearby farm directly after laying have been incubated at a temperature of 36-38° C. and a relative humidity of 60%. During the growth the eggs have been held in an inclined position and turned from time to time in order to avoid an adherence to the shell. After four days each embryo was transferred into a cavity created by fixing a thin plastic foil on top of a cup and covered. This was done by opening the shell at the flat end where the air sac resides and letting the content slip out. There the growth continued for another 2-4 days until the first blood vessels became visible. Then 10 nmol of the substance to be tested (in 10 μL PBS with 1% DMF) have been applied directly on the embryonal vessels. As a reference PBS was used. Finally incubation continued for up to another three days (Dugan et al., Anat. Rec. 1991, 229, 125-128; Fisher, Tested studies for laboratory teaching 1993, 5, 105-115).

[3] = tested on: A2780 ovarian carcinoma xenografts; assay: A2780 ovarian carcinoma xenograft model; format: in vivo, mouse

Structure (SMILES) | Intact mitochondria [%] in 518A2 cells after 72 h (518A2 cells) [%] | IC50 concentration [1] | cytotoxicity (comparison) [1] | inhibition of tube formation (HUVEC cells) | effect on embryonal blood vessels [2] | vascular disrupting effect [3]
COc1ccc(-c2c(-c3cc(Br)c(OC)c(OC)c3)ncn2C)cc1N [compound 6b, 1-methyl-5-(3-amino-4-methoxyphenyl)-4-(3-bromo-4,5-dimethoxyphenyl)-imidazole] | 80 ± 9 | single-digit nanomolar range | able to overcome the drug resistance in these cancer cells in vitro | pronounced inhibition of tube formation | leaving regular vasculature in chicken embryos (CAM assay) alone | vascular disrupting activity
COc1ccc(-c2c(-c3cc(Cl)c(OC)c(OC)c3)ncn2C)cc1N [compound 5b, 1-methyl-5-(3-amino-4-methoxyphenyl)-4-(3-chloro-4,5-dimethoxyphenyl)-imidazole] | 80 ± 9 | single-digit nanomolar range | able to overcome the drug resistance in these cancer cells in vitro | did not yield a correspondingly strong inhibition at this concentration | dramatic vessel shrinkage within 24 h after treatment and to a complete degradation of the vascular system within three days | vascular disrupting activity
